Source: PubChem BioAssay AID190 (DTP/NCI, 2004)
Where “and” joins values, the source holds several entries; their conditions need not be identical. Identical values can stand only once. Inconclusive results and toxic doses are left out. The calls were made as follows: active = survival T/C of 150% or more; inactive = T/C below 125% in these data.

Tested on: AKR/Lw mice, AKR lymphoma ip, median survival T/C
Assay: NCI In Vivo Anticancer Drug Screen. Data for tumor model Lymphoma AKR (Transplanted) (intraperitoneal) in AKR/Lw mice
Details: endpoint: median survival time, higher = longer survival
Procedure: The antitumor activity of compounds was measured in mice bearing transplantable tumors. Survival or tumor size were measured and the results are expressed as the measurement made in the treated group (T) divided by the measurement made in the vehicle treated control group (C). The tumor model used in this assay is Lymphoma AKR (Transplanted) (intraperitoneal) in AKR/Lw mice

[1] = dose: 50.0 mg/kg/injection, schedule: Q01DX001 (ip), vehicle: Klucel (hydroxypropylcellulose) (HPC)
[2] = dose: 100.0 mg/kg/injection, schedule: Q01DX001 (ip), vehicle: Klucel (hydroxypropylcellulose) (HPC)
[3] = dose: 100.0 mg/kg/injection, schedule: Q01DX001 (ip), vehicle: saline
[4] = dose: 150.0 mg/kg/injection, schedule: Q01DX001 (ip), vehicle: Klucel (hydroxypropylcellulose) (HPC)
[5] = dose: 200.0 mg/kg/injection, schedule: Q01DX001 (ip), vehicle: Klucel (hydroxypropylcellulose) (HPC)
[6] = dose: 200.0 mg/kg/injection, schedule: Q01DX001 (ip), vehicle: saline
[7] = dose: 200.0 mg/kg/injection, schedule: Q04DX003 (ip), vehicle: Klucel (hydroxypropylcellulose) (HPC)
[8] = dose: 400.0 mg/kg/injection, schedule: Q01DX001 (ip), vehicle: Klucel (hydroxypropylcellulose) (HPC)
[9] = dose: 400.0 mg/kg/injection, schedule: Q01DX001 (ip), vehicle: saline
[10] = dose: 100.0 mg/kg/injection, schedule: Q04DX003 (ip), vehicle: Klucel (hydroxypropylcellulose) (HPC)
[11] = dose: 400.0 mg/kg/injection, schedule: Q04DX003 (ip), vehicle: Klucel (hydroxypropylcellulose) (HPC)

Measured: T/C

CC(=O)NNC(=O)c1ccccn1
inactive: dose: 3.1 mg/kg/injection, schedule: Q04DX003 (ip), vehicle: Klucel (hydroxypropylcellulose) (HPC) 92 % of control | dose: 6.2 mg/kg/injection, schedule: Q01DX009 (ip), vehicle: Klucel (hydroxypropylcellulose) (HPC) 100 % of control | dose: 6.2 mg/kg/injection, schedule: Q04DX003 (ip), vehicle: Klucel (hydroxypropylcellulose) (HPC) 88 % of control and 102 % of control | dose: 12.5 mg/kg/injection, schedule: Q01DX009 (ip), vehicle: Klucel (hydroxypropylcellulose) (HPC) 112 % of control and 120 % of control | dose: 12.5 mg/kg/injection, schedule: Q04DX003 (ip), vehicle: Klucel (hydroxypropylcellulose) (HPC) 89 % of control and 96 % of control | dose: 25.0 mg/kg/injection, schedule: Q01DX001 (ip), vehicle: saline 97 % of control and 108 % of control | dose: 25.0 mg/kg/injection, schedule: Q01DX009 (ip), vehicle: Klucel (hydroxypropylcellulose) (HPC) 109 % of control and 114 % of control | dose: 25.0 mg/kg/injection, schedule: Q01DX009 (ip), vehicle: saline 87 % of control and 91 % of control | dose: 25.0 mg/kg/injection, schedule: Q04DX003 (ip), vehicle: Klucel (hydroxypropylcellulose) (HPC) 97 % of control and 105 % of control and 112 % of control | dose: 31.25 mg/kg/injection, schedule: Q01DX001 (ip), vehicle: Klucel (hydroxypropylcellulose) (HPC) 94 % of control | dose: 37.5 mg/kg/injection, schedule: Q01DX009 (ip), vehicle: saline 98 % of control | [1] 92 % of control | dose: 50.0 mg/kg/injection, schedule: Q01DX001 (ip), vehicle: saline 95 % of control and 107 % of control | dose: 50.0 mg/kg/injection, schedule: Q01DX009 (ip), vehicle: Klucel (hydroxypropylcellulose) (HPC) 120 % of control | dose: 50.0 mg/kg/injection, schedule: Q01DX009 (ip), vehicle: saline 101 % of control and 104 % of control | dose: 50.0 mg/kg/injection, schedule: Q04DX003 (ip), vehicle: Klucel (hydroxypropylcellulose) (HPC) 104 % of control and 109 % of control and 110 % of control | dose: 62.5 mg/kg/injection, schedule: Q01DX001 (ip), vehicle: Klucel (hydroxypropylcellulose) (HPC) 94 % of control | dose: 75.0 mg/kg/injection, schedule: Q01DX009 (ip), vehicle: saline 96 % of control | [2] 114 % of control | [3] 102 % of control and 115 % of control and 116 % of control | dose: 100.0 mg/kg/injection, schedule: Q01DX009 (ip), vehicle: Klucel (hydroxypropylcellulose) (HPC) 123 % of control | dose: 100.0 mg/kg/injection, schedule: Q01DX009 (ip), vehicle: saline 107 % of control | dose: 100.0 mg/kg/injection, schedule: Q04DX003 (ip), vehicle: other 117 % of control and 123 % of control | dose: 100.0 mg/kg/injection, schedule: Q04DX003 (ip), vehicle: saline 116 % of control | [4] 94 % of control | dose: 150.0 mg/kg/injection, schedule: Q01DX009 (ip), vehicle: saline 105 % of control | [5] 95 % of control | [6] 97 % of control and 107 % of control | [7] 87 % of control and 94 % of control | dose: 200.0 mg/kg/injection, schedule: Q04DX003 (ip), vehicle: other 107 % of control | dose: 200.0 mg/kg/injection, schedule: Q04DX003 (ip), vehicle: saline 116 % of control | dose: 250.0 mg/kg/injection, schedule: Q01DX001 (ip), vehicle: Klucel (hydroxypropylcellulose) (HPC) 107 % of control | [8] 100 % of control

ClC1=C(Cl)C2(Cl)C3(Cl)C(Cl)=C(Cl)C(Cl)(C34OCCO4)C2(Cl)C12OCCO2 (stereo not drawn)
inactive: [3] 96 % of control | [6] 108 % of control | [9] 108 % of control

C1CC2C(CCCC23OCCO3)C2(C1)OCCO2 (stereo not drawn)
inactive: [2] 103 % of control | [3] 106 % of control | [5] 96 % of control | [6] 106 % of control | [8] 93 % of control | [9] 113 % of control

COc1ccc2c3c(ccc2c1)C(=O)C(C)(C#N)CC3 (stereo not drawn)
inactive: dose: 37.5 mg/kg/injection, schedule: Q01DX001 (ip), vehicle: Klucel (hydroxypropylcellulose) (HPC) 92 % of control | dose: 75.0 mg/kg/injection, schedule: Q01DX001 (ip), vehicle: Klucel (hydroxypropylcellulose) (HPC) 94 % of control | [4] 100 % of control | dose: 300.0 mg/kg/injection, schedule: Q01DX001 (ip), vehicle: Klucel (hydroxypropylcellulose) (HPC) 107 % of control

COc1cc2c(cc1OC)C(CNC(=O)/C=C/c1ccccc1)C2 (stereo not drawn)
inactive: [2] 102 % of control | [10] 96 % of control | [5] 94 % of control | [7] 100 % of control | [8] 89 % of control | [11] 100 % of control

CO[C@H](C(=O)[C@@H](O)[C@@H](C)O)[C@@H]1Cc2cc3cc(OC4CC(OC5CC(O)C(O)C(C)O5)C(O)C(C)O4)c(C)c(O)c3c(O)c2C(=O)[C@H]1OC1CC(OC2CC(OC3CC(C)(O)C(O)C(C)O3)C(O)C(C)O2)C(O)C(C)O1 (stereo partly drawn)
inactive: dose: 0.12 mg/kg/injection, schedule: Q01DX009 (ip), vehicle: saline 115 % of control | dose: 0.25 mg/kg/injection, schedule: Q01DX009 (ip), vehicle: water 95 % of control | dose: 0.5 mg/kg/injection, schedule: Q01DX009 (ip), vehicle: water 110 % of control

Cn1c(O)c(C=N)c(=O)[nH]c1=O
inactive: [3] 113 % of control | [10] 104 % of control | [6] 94 % of control | [7] 93 % of control | [9] 113 % of control | [11] 97 % of control

OCC1=C(CO)C2(Cl)C(Cl)=C(Cl)C1(Cl)C2(Cl)Cl
inactive: [5] 95 % of control | [8] 91 % of control

CCN(CC)C(N)=S
inactive: [2] 105 % of control | [10] 100 % of control | [5] 105 % of control | [7] 103 % of control | [8] 110 % of control | [11] 107 % of control

NC(=S)N/N=C/c1ccccn1
inactive: dose: 0.12 mg/kg/injection, schedule: Q03HX032 (ip), vehicle: saline with Tween-80 122 % of control | dose: 0.25 mg/kg/injection, schedule: Q03HX032 (ip), vehicle: saline with Tween-80 113 % of control | dose: 0.5 mg/kg/injection, schedule: Q03HX032 (ip), vehicle: saline with Tween-80 122 % of control | dose: 1.0 mg/kg/injection, schedule: Q03HX032 (ip), vehicle: saline with Tween-80 114 % of control | dose: 1.25 mg/kg/injection, schedule: Q01DX009 (ip), vehicle: saline with Tween-80 96 % of control | dose: 2.0 mg/kg/injection, schedule: Q04DX003 (ip), vehicle: saline with Tween-80 103 % of control | dose: 3.5 mg/kg/injection, schedule: Q04DX003 (ip), vehicle: saline with Tween-80 96 % of control | dose: 4.0 mg/kg/injection, schedule: Q04DX003 (ip), vehicle: saline with Tween-80 116 % of control | dose: 5.0 mg/kg/injection, schedule: Q01DX009 (ip), vehicle: saline with Tween-80 94 % of control | dose: 5.3 mg/kg/injection, schedule: Q04DX003 (ip), vehicle: saline with Tween-80 106 % of control | dose: 8.0 mg/kg/injection, schedule: Q04DX003 (ip), vehicle: saline with Tween-80 109 % of control | dose: 13.0 mg/kg/injection, schedule: Q04DX003 (ip), vehicle: saline with Tween-80 112 % of control

CC(=O)CC(=O)c1ccccc1.CC(=O)CC(=O)c1ccccc1.CC(=O)CC(=O)c1ccccc1.[Co]
inactive: dose: 25.0 mg/kg/injection, schedule: Q01DX001 (ip), vehicle: Klucel (hydroxypropylcellulose) (HPC) 100 % of control | [1] 100 % of control
